The record followed here is ChEMBL document CHEMBL1201862, “PubChem BioAssay data set” (2004).

Among the test systems are CCRF-CEM; SK-OV-3; ACHN; UACC-62; LXFL 529; SF-539; DMS-114; SK-MEL-5; SK-MEL-2; SNB-75; RXF 393; NCI-H23; DLD-1; EKVX; Malme-3M; NCI-H460; RPMI-8226.
Assay in all cases: inhibition of tumour cell growth, NCI panel, 48 h

Each structure is given as a SMILES string.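 All cell lines were grown in 96-well plates and treated with compound for 48 hours. GI50 marks 50% less growth.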 The source made the active and inactive calls. No stated cut-off is given here; in the data, active = GI50 up to about 1.1 µM and inactive = higher.

In the case of `Cc1ccc(S(=O)(=O)N2CCCCC2CCO)cc1` (stereo unspecified), the GI50 with CCRF-CEM, in the test on SK-OV-3, in the test with ACHN, in the test on UACC-62, with LXFL 529 and with SF-539 was > 100 µM (inactive) each time. Moreover, the GI50 in the test with DMS-114, in the test on SK-MEL-5, in the test with SK-MEL-2, in the test with SNB-75, with RXF 393 and in the test on NCI-H23 was > 100 µM (inactive) in each case. Moreover, the GI50 in the test with DLD-1, in the test on EKVX, with Malme-3M, in the test with NCI-H460 and in the test on RPMI-8226 was > 100 µM (inactive) throughout.

Regarding `CCn1c(=O)c2ccccc2n2c(=O)c3cc4ccccc4cc3nc12`, the GI50 with CCRF-CEM was > 100 µM (inactive); in the test with SK-OV-3, 92.7 µM (inactive); with ACHN, > 100 µM (inactive); in the test with UACC-62 it was > 100 µM (inactive); in the test with LXFL 529, > 100 µM (inactive); with SF-539, 62.7 µM (inactive). For the same compound, the GI50 is > 100 µM (inactive) with DMS-114; 63 µM (inactive) in the test with SK-MEL-5; > 100 µM (inactive) with SK-MEL-2; 27.4 µM (inactive) with SNB-75; 15.2 µM (inactive) with RXF 393; > 100 µM (inactive) in the test on NCI-H23. Further, the GI50 with DLD-1, in the test on EKVX, with Malme-3M, in the test with NCI-H460 and with RPMI-8226 was > 100 µM (inactive) throughout.

On to `CN(C)/C=N\c1ccn(CCO)c(=O)n1`, for which the GI50 in the test on CCRF-CEM, in the test with SK-OV-3, in the test with ACHN, with UACC-62, in the test on LXFL 529 and in the test on SF-539 was > 100 µM (inactive) throughout. The GI50 with DMS-114, in the test with SK-MEL-5, in the test with SK-MEL-2, with SNB-75, in the test with RXF 393 and in the test with NCI-H23 was > 100 µM (inactive) throughout. Besides, the GI50 in the test with DLD-1, with EKVX, with Malme-3M and with NCI-H460 was > 100 µM (inactive) each time.

Turning to `CCOC(=O)C1(C(=O)OCC)CC=C(C)CC12C(=O)Nc1ccccc12` (stereo unspecified), the GI50 with CCRF-CEM, in the test with SK-OV-3, in the test on ACHN, with UACC-62, with LXFL 529 and in the test with SF-539 was > 100 µM (inactive) in each case. Further, the GI50 in the test on DMS-114, in the test on SK-MEL-5, in the test on SK-MEL-2, with SNB-75, with NCI-H23 and in the test on DLD-1 was > 100 µM (inactive) throughout. Also, the GI50 in the test on EKVX, in the test with Malme-3M, with NCI-H460 and with RPMI-8226 was > 100 µM (inactive) each time.

As for `O=c1c2ccccc2nc(-c2ccccc2)n1NCC1(O)OCC(O)C(O)C1O` (stereo unspecified), the GI50 in the test with CCRF-CEM is 33.1 µM (inactive); with SK-OV-3, > 100 µM (inactive); in the test with ACHN it was 95.7 µM (inactive); in the test on UACC-62 it was > 100 µM (inactive); in the test on LXFL 529, > 100 µM (inactive); in the test on SF-539, > 100 µM (inactive). Further, the GI50 in the test on DMS-114 was > 100 µM (inactive); in the test with SK-MEL-5 it was 48 µM (inactive); in the test with SK-MEL-2, > 100 µM (inactive); in the test with SNB-75, 50 µM (inactive); with NCI-H23, > 100 µM (inactive); in the test with DLD-1, > 100 µM (inactive). The GI50 is > 100 µM (inactive) in the test on EKVX, > 100 µM (inactive) in the test on Malme-3M, 30.1 µM (inactive) in the test with NCI-H460 and 52.7 µM (inactive) in the test with RPMI-8226.

Consider `CC(=O)NC1=C(NCC(C)C)C(=O)c2ccccc2C1=O`, for which the GI50 was 7.18 µM (inactive) in the test with CCRF-CEM; 78.2 µM (inactive) with SK-OV-3; > 100 µM (inactive) with ACHN; 18 µM (inactive) in the test on UACC-62; 16.1 µM (inactive) in the test with LXFL 529; 17.3 µM (inactive) in the test on SF-539. The GI50 with DMS-114 was 14.7 µM (inactive); in the test with SK-MEL-5 it was 19.9 µM (inactive); in the test on SK-MEL-2 it was 26 µM (inactive); in the test on SNB-75, 16.9 µM (inactive); with RXF 393, 12.5 µM (inactive); with NCI-H23 it was 20 µM (inactive). Also, the GI50 is 19 µM (inactive) in the test on DLD-1; 25 µM (inactive) in the test with EKVX; 18.9 µM (inactive) in the test on Malme-3M; 34.7 µM (inactive) with NCI-H460; 37.3 µM (inactive) in the test on RPMI-8226.

For `C[C@]12CC(C=O)C(=O)C(O)=C1CC[C@@H]1C2CC[C@@]2(C)C1CC[C@]2(C)O` (stereo partly specified), the GI50 in the test on CCRF-CEM is > 10 µM (inactive); in the test on SK-OV-3 it was 21.4 µM (inactive); with ACHN it was 22.3 µM (inactive); with UACC-62, 13.8 µM (inactive); in the test with LXFL 529, 16.6 µM (inactive); with SF-539, 18.5 µM (inactive). The GI50 in the test with DMS-114 was 16.5 µM (inactive); in the test with SK-MEL-5, 17.6 µM (inactive); in the test with SK-MEL-2, 5.02 µM (inactive); in the test with SNB-75, 20.6 µM (inactive); in the test on RXF 393 it was 21.4 µM (inactive); with NCI-H23 it was 21.7 µM (inactive). Further, the GI50 in the test on DLD-1 was 8.55 µM (inactive); in the test with EKVX it was 31.8 µM (inactive); in the test with Malme-3M, 5.06 µM (inactive); in the test on NCI-H460 it was 30.3 µM (inactive); with RPMI-8226 it was 16.6 µM (inactive).

For the compound `CC(C)(C)OC(=O)N1CC(C)(C)N2C(=O)C3(CCCO3)C12` (stereo unspecified), the GI50 in the test with CCRF-CEM was 67.1 µM (inactive); with SK-OV-3, > 100 µM (inactive); in the test on ACHN it was > 100 µM (inactive); in the test with UACC-62, > 100 µM (inactive); in the test with LXFL 529, > 100 µM (inactive); with SF-539 it was > 100 µM (inactive). Besides, the GI50 in the test on DMS-114, in the test with SK-MEL-5, in the test with SK-MEL-2, in the test with SNB-75, in the test on RXF 393 and in the test on NCI-H23 was > 100 µM (inactive) throughout. Besides, the GI50 in the test on DLD-1 was > 100 µM (inactive); in the test on EKVX, > 100 µM (inactive); in the test on Malme-3M it was > 100 µM (inactive); in the test on NCI-H460, > 100 µM (inactive); in the test on RPMI-8226, 19.5 µM (inactive).

Consider `O=S1(=O)COc2ccccc2-c2ncncc21`, for which the GI50 with CCRF-CEM, in the test on SK-OV-3, with ACHN, in the test with UACC-62, in the test with LXFL 529 and in the test with SF-539 was > 100 µM (inactive) each time. Besides, the GI50 was > 100 µM (inactive) in the test with DMS-114; > 100 µM (inactive) in the test with SK-MEL-5; > 100 µM (inactive) in the test on SNB-75; 1.02 µM (active) in the test with RXF 393; > 100 µM (inactive) in the test with NCI-H23; > 100 µM (inactive) with DLD-1. Also, the GI50 with EKVX, in the test with Malme-3M, in the test with NCI-H460 and in the test with RPMI-8226 was > 100 µM (inactive) throughout.

`COC(=O)C12C3C4C1C1C2C3C41I` (stereo unspecified): the GI50 in the test with CCRF-CEM, in the test with SK-OV-3, in the test on ACHN, with UACC-62, in the test on LXFL 529 and in the test with SF-539 was > 100 µM (inactive) each time. Moreover, the GI50 with DMS-114, with SK-MEL-5, with RXF 393, with NCI-H23, in the test with DLD-1 and in the test on EKVX was > 100 µM (inactive) throughout. Besides, the GI50 in the test on Malme-3M, in the test on NCI-H460 and in the test with RPMI-8226 was > 100 µM (inactive) throughout.

In the case of `Cc1ccccc1-c1cc(=O)c2cc(C)c(C)c(C(=O)O)c2o1`, the GI50 in the test on CCRF-CEM, in the test with SK-OV-3, with ACHN, in the test with UACC-62, with LXFL 529 and in the test on SF-539 was > 100 µM (inactive) each time. Also, the GI50 with DMS-114, with SK-MEL-5, in the test on SK-MEL-2, in the test with SNB-75, with NCI-H23 and in the test on DLD-1 was > 100 µM (inactive) throughout. Moreover, the GI50 with EKVX, with Malme-3M, with NCI-H460 and in the test on RPMI-8226 was > 100 µM (inactive) throughout.

Regarding `Oc1nnc(CNc2ccc(Cl)cc2Cl)c2ccccc12`, the GI50 is > 100 µM (inactive) in the test with CCRF-CEM; 18.9 µM (inactive) in the test with SK-OV-3; 22.8 µM (inactive) in the test with ACHN; 27.5 µM (inactive) with UACC-62; 17.1 µM (inactive) in the test with LXFL 529; 17.1 µM (inactive) with SF-539. The GI50 in the test with DMS-114 was 13.9 µM (inactive); in the test with SK-MEL-5, 19.7 µM (inactive); in the test on SK-MEL-2 it was 82.8 µM (inactive); in the test with SNB-75, 23.6 µM (inactive); with RXF 393 it was 13.9 µM (inactive); in the test on DLD-1, 21.2 µM (inactive). Further, the GI50 in the test on EKVX is 36.2 µM (inactive); in the test on Malme-3M, 23.6 µM (inactive); with NCI-H460, 24.6 µM (inactive); with RPMI-8226, 58.2 µM (inactive).
